Assay results from the NIST ThermoML archive (doi:10.1021/je0602465).
“And” between values parts separate entries of the source, which are not always exact repeats. Equal entries are not always repeated.

Settings: Liquid; for vapor or sublimation pressure: low residence time flow method

Oc1ccccc1O [1,2-benzenediol]
Settings	vapor or sublimation pressure
511.3 K	81.47 kPa
535.7 K	147 kPa
547 K	187.4 kPa
577.6 K	349.1 kPa
595.6 K	487.9 kPa
597.3 K	499.4 kPa
621.8 K	742.9 kPa
640.1 K	988.9 kPa
640.9 K	992.8 kPa
692.7 K	1996 kPa and 1995 kPa
711.5 K	2496 kPa
727.5 K	2993 kPa
727.9 K	2997 kPa
753.5 K	4007 kPa
754.8 K	3993 kPa

Oc1cccc(O)c1 [1,3-benzenediol]
Settings	Critical pressure [kPa]	Critical temperature [K]	vapor or sublimation pressure [kPa]
546.7 K	–	–	84.54
582.6 K	–	–	192.6
631.7 K	–	–	494.8
675.9 K	–	–	994.4
728.6 K	–	–	1994
790.6 K	–	–	3994
813.7 K	–	–	4999
831.3 K	–	–	5995
Low residence time flow calorimetry	6240	–	–
Low residence time flow method	–	836	–

OCCCCCCO [1,6-hexanediol]
Settings	Critical pressure [kPa]	Critical temperature [K]	vapor or sublimation pressure [kPa]
523.2 K	–	–	93.33
552.8 K	–	–	199.3
597.1 K	–	–	500.6
637.1 K	–	–	1001
685.1 K	–	–	2007
717.6 K	–	–	3024
740 K	–	–	4012
740.4 K	–	–	4054
Low residence time flow calorimetry	4080	–	–
Low residence time flow method	–	740.8	–

C1CNCCN1 [piperazine]
Settings	Critical pressure [kPa]	Critical temperature [K]	vapor or sublimation pressure [kPa]
445.2 K	–	–	189.5
471.6 K	–	–	343.6
488.9 K	–	–	492.3
528.1 K	–	–	992.6
573.6 K	–	–	1994
629.7 K	–	–	3997
649.3 K	–	–	4994
653.7 K	–	–	5243
655 K	–	–	5348
Low residence time flow calorimetry	5420	656.3	–
